{"source": "patent US20060281901A1", "about": "“Method for the production of amyloid-beta peptide using ubiquitin” (priority 2005, published 2006)", "key": {"[1]": {"test_system": "Human neuroblastoma SH-SY5Y cell line", "assay": "level of apoptosis by trypan blue staining", "type": "cell-based", "conditions": "5 μM, 36 hrs, FIG. 4C", "experimental": "(§1) Human neuroblastoma SH-SY5Y cell line (ATCC CRL-2266) was suspended in DMEM containing 10% FBS, distributed to each well of a 96-well plate at a concentration of 7×10^3 cells/well, and then, cultured at 37 °C for 24 hrs. The genetic recombinant amyloid-β peptide solution prepared above was added to each well at a concentration of 1, 2 or 4 μM, and the well plate was incubated at 37 °C for 24 hrs. The cell activity was measured by means of MTT (3-(4,5-dimethylthiazol-2-yl)-2,5-diphenyltetrazolium bromide) assay which is capable of measuring the in vivo mitochondria dehydrogenase activity. MTT was added to each well at a concentration of 0.8 mg/ml, and the reactants in the well were allowed to react at 37 °C for 5 hrs to induce in vivo dehydrogenase reaction of mitochondria. Formazan crystals generated from such reaction were dissolved in dimethyl sulfoxide and its adsorbance was measured at 550 nm.\nAfter the cells were treated with 5 μM of the amyloid-β peptide for 36 hrs, black cells stained with trypan blue were examined to determine the level of apoptosis induced."}, "[2]": {"test_system": "Human neuroblastoma SH-SY5Y cell line", "assay": "MTT assay of cell activity (mitochondria dehydrogenase activity)", "type": "cell-based", "conditions": "for degree of suppression of the cell activity by concentration (MTT): SH-SY5Y cells, 1, 2 or 4 μM, 24 hrs, FIG. 4A", "experimental": "To compare the physiological activity of the genetic recombinant amyloid-β peptide produced according to the present invention with that of the amyloid-β peptide produced by a chemical synthetic method, their mitochondrial activities in eykaryotic cells were examined as follows:\nFirst, 0.45 mg of the amyloid-β peptide prepared in Example 3 was dissolved in 20 μl of dimethyl sulfoxide, and 980 μl of DMEM was added thereto, to prepare the amyloid-β peptide solution at a concentration of 100 μM, which was stored at 4[…] for 24 hrs and subjected to centrifugation to separate the supernatant from the precipitate. The supernatant was distributed to an eppendorf tube at a volume of 50 μl and stored at −80[…].\nas §1\nAlso shown in FIG. [[4a]]4A are the results obtained using the recombinant ubiquitin (H6Ub: ●) control, the ubiquitin-amyloid-β peptide fusion protein (H6Ub-Aβ42: ▪) and the chemically synthesized amyloid-β peptide (Aβ42: □)."}, "[3]": {"conditions": "listed as recombinant amyloid-β peptide"}}, "data": [{"substance": "rAβ42: genetic recombinant amyloid-β peptide (amyloid-beta42, SEQ ID NO: 19) cleaved from a ubiquitin fusion protein expressed in E. coli", "values": [{"measurement": "level of apoptosis induced (trypan blue staining)", "setting": "[1]", "value": "showed an apoptotic activity, which was significantly higher than the recombinant ubiquitin (H6Ub) or ubiquitin-amyloid fusion protein (H6Ub-Aβ42), the activity being equal to, or slightly higher than, the chemically synthesized amyloid-β peptide (Aβ42)"}, {"measurement": "level of apoptosis induced (trypan blue staining)", "setting": "[1]; [3]", "value": "induce apoptosis to an extent which is equal to that achievable with chemically synthesized amyloid-β peptide"}, {"measurement": "changes in the cell activity according to the treatment time (MTT)", "setting": "[2]; SH-SY5Y cells, 5 μM, 12, 24 and 48 hrs, FIG. 4B", "value": "as the treatment time becomes longer, the cell activity becomes further reduced"}, {"measurement": "degree of suppression of the cell activity by concentration (MTT)", "setting": "[2]", "value": "can suppress the cell activity just like the chemically synthesized amyloid-β peptide"}, {"measurement": "degree of suppression of the cell activity by concentration (MTT)", "setting": "[2]; [3]", "value": "can suppress the cell activity"}]}]}
